Among the data in patent publication US8003654B2, “N-glycinsulfonamide derivatives and uses as orexin receptor antagonists” (Actelion Pharmaceuticals Ltd., priority 2006, dated 2011) are IC50 values, retold here.

Assay [1] deals with T1, human orexin-1 receptor (Homo sapiens, UniProt O43613).
T1 construct: expressed in transfected cells; host or cells: CHO cells (G418 selection)
T1 sequence (O43613 1-425): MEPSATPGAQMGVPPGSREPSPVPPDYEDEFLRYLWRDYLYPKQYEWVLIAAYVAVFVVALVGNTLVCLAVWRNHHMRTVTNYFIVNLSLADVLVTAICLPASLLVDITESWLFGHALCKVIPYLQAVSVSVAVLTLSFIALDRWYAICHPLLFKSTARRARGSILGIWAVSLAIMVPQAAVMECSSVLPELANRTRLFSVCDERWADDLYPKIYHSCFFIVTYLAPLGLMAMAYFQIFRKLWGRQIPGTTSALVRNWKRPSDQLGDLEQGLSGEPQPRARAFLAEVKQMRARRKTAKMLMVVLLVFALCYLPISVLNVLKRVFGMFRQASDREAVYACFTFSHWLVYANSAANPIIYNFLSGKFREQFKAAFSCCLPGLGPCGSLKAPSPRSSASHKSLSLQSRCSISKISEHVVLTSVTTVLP
In words: Intracellular calcium measurements (FLIPR), antagonism of 10 nM orexin-A in CHO cells expressing the human orexin-1 receptor. Format: cell-based. To be noted: CHO cells expressing human orexin-1 receptor, agonist 10 nM orexin-A, read-out: OX1 IC50. On the procedure:
(§1) The orexin receptor antagonistic activity of the compounds of formula (I) is determined in accordance with the following experimental method.
(§2) • Intracellular Calcium Measurements:
(§3) Chinese hamster ovary (CHO) cells expressing the human orexin-1 receptor and the human orexin-2 receptor, respectively, are grown in culture medium (Ham F-12 with L-Glutamine) containing 300 μg/ml G418, 100 U/ml penicillin, 100 μg/ml streptomycin and 10% inactivated fetal calf serum (FCS). The cells are seeded at 80,000 cells/well into 96-well black clear bottom sterile plates (Costar) which have been precoated with 1% gelatine in Hanks' Balanced Salt Solution (HBSS). All reagents are from Gibco BRL. The seeded plates are incubated overnight at 37° C. in 5% CO2.
(§4) Human orexin-A as an agonist is prepared as 1 mM stock solution in methanol:water (1:1), diluted in HBSS containing 0.1% bovine serum albumin (BSA) and 2 mM HEPES for use in the assay at a final concentration of 10 nM.
(§5) Antagonists are prepared as 10 mM stock solution in DMSO, then diluted in 96-well plates, first in DMSO, then in HBSS containing 0.1% bovine serum albumin (BSA) and 2 mM HEPES.
(§6) On the day of the assay, 100 μl of loading medium (HBSS containing 1% FCS, 2 mM HEPES, 5 mM probenecid (Sigma) and 3 μM of the fluorescent calcium indicator fluo-3 AM (1 mM stock solution in DMSO with 10% pluronic acid) (Molecular Probes) is added to each well.
(§7) The 96-well plates are incubated for 60 min at 37° C. in 5% CO2. The loading solution is then aspirated and cells are washed 3 times with 200 μl HBSS containing 2.5 mM probenecid, 0.1% BSA, 2 mM HEPES. 100 μl of that same buffer is left in each well.
(§8) Within the Fluorescent Imaging Plate Reader (FLIPR, Molecular Devices), antagonists are added to the plate in a volume of 50 μl, incubated for 20 min and finally 100 μl of agonist is added. Fluorescence is measured for each well at 1 second intervals, and the height of each fluorescence peak is compared to the height of the fluorescence peak induced by 10 nM orexin-A with buffer in place of antagonist. For each antagonist, IC50 value (the concentration of compound needed to inhibit 50% of the agonistic response) is determined. Antagonistic activities of compounds are in the nanomolar range with respect to OX1 and OX2 receptors.
(In general: Calcium flux is commonly read through the fluorescence of an indicator in the cells.)

Assay [2] deals with T2, human orexin-2 receptor (Homo sapiens, UniProt O43614).
T2 construct: expressed in transfected cells; host or cells: CHO cells (G418 selection)
T2 sequence (O43614 1-444): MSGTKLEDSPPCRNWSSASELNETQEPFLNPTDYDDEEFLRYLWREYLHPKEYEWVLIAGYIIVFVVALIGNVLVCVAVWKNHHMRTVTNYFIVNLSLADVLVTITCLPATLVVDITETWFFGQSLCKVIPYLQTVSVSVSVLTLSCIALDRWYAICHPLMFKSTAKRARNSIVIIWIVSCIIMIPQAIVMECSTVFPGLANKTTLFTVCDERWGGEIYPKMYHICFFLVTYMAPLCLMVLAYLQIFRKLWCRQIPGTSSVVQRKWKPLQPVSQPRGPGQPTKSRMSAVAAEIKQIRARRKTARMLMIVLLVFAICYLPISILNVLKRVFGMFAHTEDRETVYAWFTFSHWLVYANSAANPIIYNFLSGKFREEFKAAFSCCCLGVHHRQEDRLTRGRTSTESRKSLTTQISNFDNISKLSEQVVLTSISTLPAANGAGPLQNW
Briefly: Intracellular calcium measurements (FLIPR), antagonism of 10 nM orexin-A in CHO cells expressing the human orexin-2 receptor. The class given is cell-based. Particulars: CHO cells expressing human orexin-2 receptor, agonist 10 nM orexin-A, read-out: OX2 IC50. The method, then: as §1, §2, §3, §4, §5, §6, §7, §8

The structures appear in SMILES notation.

For `CCN(Cc1cncc(C)n1)C(=S)CN(c1cc(N(C)C)ccc1Cl)S(=O)(=O)c1ccc(OC)c(OC)c1` [Example 14, 2-[(2-Chloro-5-dimethylamino-phenyl)-(3,4-dimethoxy-benzenesulfonyl)-amino]-N-ethyl-N-(6-methyl-pyrazin-2-ylmethyl)-thioacetamide], the results for the IC50 in assay [1] and in assay [2] were 15 nM and 12 nM, respectively.
The corresponding values for `CCN(Cc1cccc(C)n1)C(=O)CN(c1cc2c(C)nsc2cc1Cl)S(=O)(=O)c1ccc(OC)c(OC)c1` [Example 21, 2-[(6-Chloro-3-methyl-benzo[d]isothiazol-5-yl)-(3,4-dimethoxy-benzenesulfonyl)-amino]-N-ethyl-N-(6-methyl-pyridin-2-ylmethyl)-acetamide] are 8 nM and 7 nM.
For the compound `CCN(CC)C(=O)CN(c1ccc(Cl)cc1C#N)S(=O)(=O)c1ccc(OC)c(OC)c1` [Example 27, 2-[(4-Chloro-2-cyano-phenyl)-(3,4-dimethoxy-benzenesulfonyl)-amino]-N,N-diethyl-acetamide], the IC50 (in general, the concentration that gives 50% inhibition) in assay [1] stood at 180 nM; in assay [2], 2 nM.
Regarding `COc1ccc(S(=O)(=O)N(CC(=O)N(CCO)Cc2ccccn2)c2cc(N(C)C)ccc2Cl)cc1OC` [Example 55, 2-[(2-Chloro-5-dimethylamino-phenyl)-(3,4-dimethoxy-benzenesulfonyl)-amino]-N-(2-hydroxy-ethyl)-N-pyridin-2-ylmethyl-acetamide], the IC50 was determined as 63 nM in assay [1] and 7 nM in assay [2].
In the case of `CCN(CC)C(=O)CN(c1cc(N(C)C)ccc1C#N)S(=O)(=O)c1ccc(OC)c(OC)c1` [Example 58, 2-[(2-Cyano-5-dimethylamino-phenyl)-(3,4-dimethoxy-benzenesulfonyl)-amino]-N,N-diethyl-acetamide], the IC50 in assay [1] stood at 166 nM; in assay [2], 10 nM.
